Laboratory results taken from PMC10223284, “Category-Based Toxicokinetic Evaluations of Data-Poor Per- and Polyfluoroalkyl Substances (PFAS) using Gas Chromatography Coupled with Mass Spectrometry” (Toxics, 2023).
Where “and” joins values, the source holds several entries; their conditions need not be identical. Equal entries are not always repeated.

What was measured:
[1] = Abiotic loss in negative controls of the hepatocyte clearance assay (cell-free media, metabolically inactivated hepatocytes); format: in vitro ADME; conditions: flag for stability failure in hepatocyte clearance assay controls (1 or Fst = fail, 0 = pass)
Experimental: The hepatic metabolic stability assay measures the loss of a parent compound over time in a substrate-depletion approach. Briefly, hepatocyte suspensions, after a viability assessment, were diluted in complete William’s medium E (containing dexamethasone and cell maintenance cocktail B) prior to addition to 96-well polypropylene plates containing an equal volume of media spiked with the test compound (1 μM assay concentration; assay cell density = 50,000 cells/100 μL) and maintained at 37 °C with shaking. At each time point, relevant plates were crashed with an equal volume of ice-cold acetonitrile, centrifuged, and supernatant transferred to a new plate prior to storage at <−70 °C until quantitative analysis. Controls, run in parallel, included cell-free (i.e., media only) and metabolically inactivated hepatocytes to evaluate abiotic chemical stability in the aqueous media matrix with and without cellular protein. In preliminary runs, these controls were run at T0 and T240 only. If significant instability was noted, the hepatocyte clearance assay was rerun, including cell-free samples at each time point and metabolically inactivated hepatocytes at selected time points.
Negative controls, including media only and metabolically inactivated hepatocyte controls, were included to monitor abiotic loss (i.e., background clearance) during the assay. Where significant compound loss occurred using the analysis described above, background clearance rates were calculated and used to background-adjust hepatic metabolic clearance rates. Where chemicals were cleared prior to the end of the analysis, at 240 min (T240), the corresponding negative control timepoint was used for background subtraction. Any chemicals displaying a 50% or more abiotic loss at T120 were deemed unstable and were excluded from further analyses.

[2] = test system: human plasma; experiment: Chemical stability in plasma over the UC assay time course (T5hr/T1hr); conditions: for % remaining_PPB: chemical remaining in plasma over the PPB assay time course, NS = no significant loss; for PPB_Stab_Fail: flag for stability failure in the plasma protein binding assay (1 = fail, 0 = pass); for Time 1 hr / Time 1 hr, Run-specific Avg: amount measured in plasma sample at 1 hr; for Time 1 hr / Time 5 hr: replicates A, B, C; for Time 1 hr / Time 1 hr, Run-specific Avg / Time 5 hr / Time 5 hr, Run-specific Avg: unit not given; for Time 1 hr, Run-specific Avg / Time 5 hr, Run-specific Avg: run average; for Time 5 hr / Time 5 hr, Run-specific Avg: amount measured in plasma sample at 5 hr; for Fstable.Med: median fraction stable in plasma, UC assay Level4
[3] = test system: human plasma; experiment: Ultracentrifugation (UC) plasma protein binding assay, fraction unbound in plasma (fup); conditions: for Aqueous Fraction / Aqueous Fraction, Run-specific Avg: amount measured in aqueous fraction after ultracentrifugation, unit not given; for Aqueous Fraction: replicates A, B, C; for Aqueous Fraction, Run-specific Avg: run average; for Mean fu: fraction unbound in human plasma, ultracentrifugation, some values based on eLOQ; for Fup.Med: median fraction unbound in plasma; for Fup.Med / Fup.point: UC assay Level4; for Fup.point: point estimate of fraction unbound in plasma
[4] = mean T5hr/T1hr ratio in plasma over all replicates/runs
[5] = mean fraction unbound in human plasma over all UC replicates/runs
[6] = average of one UC run (run date in line above)

| Structure (SMILES) | Hep_Stab_Fail [1] | % remaining_PPB [2] [%] | PPB_Stab_Fail [2] | Time 1 hr [2] | Time 1 hr, Run-specific Avg [2] | Time 5 hr [2] | Time 5 hr, Run-specific Avg [2] | Stability (T5hr/ T1hr), Run-specific Avg ([2]; average of one UC run) | Mean Stability [2, 4] | Fstable.Med [2] | Aqueous Fraction [3] | Aqueous Fraction, Run-specific Avg [3] | Fraction Unbound (fu), Run-specific Avg ([3]; average of one UC run) | Mean fu [3] | Fup.Med [3] | Fup.point [3] | also measured |
| --- | --- | --- | --- | --- | --- | --- | --- | --- | --- | --- | --- | --- | --- | --- | --- | --- | --- |
| CO[Si](C)(CCC(F)(F)C(F)(F)C(F)(F)C(F)(F)C(F)(F)C(F)(F)F)OC [DTXSID40235137] | 1 | 0 | 1 | – | – | – | – | – | – | – | – | – | – | – | – | – | – |
| NCC(F)(F)C(F)(F)C(F)(F)C(F)(F)C(F)(F)C(F)(F)F [1H,1H-Perfluoroheptylamine] | – | 54 | 0 | 7913.09 and 7505.36 and 6518.71 | 7312.39 | 3934.26 and 4036.14 and 3821.62 | 3985.20 | 0.545 | 0.541 | 0.0946 | 488.915 and 403.165 and 617.709 | 503.26 | 0.13 | 0.129 | 0.129 | 0.121 | – |
| C=CC(=O)OCC(F)(F)C(F)(F)C(F)(F)C(F)(F)COC(=O)C=C [DTXSID80379721] | 1 | 0 | 1 | – | – | – | – | – | – | – | – | – | – | – | – | – | – |
| C=CC(=O)OCCC(F)(F)C(F)(F)C(F)(F)C(F)(F)F [2-(Perfluorobutyl)ethyl acrylate] | 1 | 0 | 1 | – | – | – | – | – | – | 0.000485 | – | – | – | – | 2.26E-06 | 0.078 | – |
| FC(F)(F)C(F)(F)C(F)(F)CC1CO1 (stereo not drawn) [1H,1H-Heptafluorobutyl epoxide] | 1 | 0 | 1 | – | – | – | – | – | – | – | – | – | – | – | – | – | – |
| NCC(F)(F)C(F)(F)C(F)(F)C(F)(F)C(F)(F)C(F)(F)C(F)(F)F [1H,1H-Perfluorooctylamine] | Fst | 58 | 0 | 5598.62 and 5535.59 and 4647.69 | 5260.63 | 3087.52 and 3094.29 and 2839.44 | 3090.91 | 0.588 | 0.577 | 0.0977 | 245.64 and 173.583 and 303.476 | 240.90 | 0.08 | 0.105 | 0.605 | 0.345 | Mean Fu [3, 5]: 0.081 |
| OCCCCC(F)(F)C(F)(F)C(F)(F)C(F)(F)F [4:4 Fluorotelomer alcohol] | 1 | 100 | 0 | 11379.4 and 9453.92 and 9594.35 | 10142.56 | 9012.64 and 8012.91 and 8571.88 | 8512.77 | 0.839 | 0.850 | 0.181 | 460.145 and 470.255 and 706.065 | 545.49 | 0.064 | 0.0640 | 0.0608 | 0.0704 | – |
| FC(F)(F)C(F)(F)CNCC(F)(F)C(F)(F)F [Bis(1H,1H-perfluoropropyl)amine] | – | – | 0 | 11322.6 and 13421.7 and 13036.1 | 12593.46 | 11284.3 and 10114.7 and 8561.71 | 10699.45 | 0.850 | 0.799 | 0.999 | 403.75 and 491.531 and 501.978 | 465.75 | 0.05 | 0.0477 | 0.0412 | 0.0433 | Mean Fu [3, 5]: 0.048 |
| C=CC(=O)OCC(F)(F)C(F)(F)C(F)(F)C(F)(F)C(F)(F)C(F)(F)C(F)(F)F [1H,1H-Perfluorooctyl acrylate] | 1 | 6 | 1 | – | – | – | – | – | – | – | – | – | – | – | – | – | – |
| OCC(F)(F)C(F)(F)C(F)(F)C(F)F [1H,1H,5H-Perfluoropentanol] | 1 | – | 0 | – | – | – | – | – | – | 1 | – | – | – | 0.3616 | 0.791 | 0.355 | Stability (T5hr/ T1hr), Run-specific Avg [2, 6]: 0.858; Mean Stability ([2]; mean T5hr/T1hr ratio over all replicates and runs, plasma): 0.855; Stability (T5hr/ T1hr), replicates A, B, C ([2]; single replicate of one UC run): 0.775 and 0.902 and 0.887; Fraction Unbound (fu), Run-specific Avg [3, 6]: 0.36; Mean Fu ([3]; mean fraction unbound over all replicates and runs, UC assay, human plasma): 0.362; Fraction Unbound (fu), replicates A, B, C ([3]; single replicate of one UC run (aqueous fraction / Time 5 hr)): 0.445 and 0.315 and 0.324 |
| C=CC(=O)OCC(F)(F)C(F)(F)C(F)(F)C(F)(F)C(F)(F)C(F)(F)C(F)(F)C(F)F [1H,1H,9H-Perfluorononyl acrylate] | 1 | 0 | 1 | – | – | – | – | – | – | 0.000116 | – | – | – | – | 2.02E-08 | 0.315 | – |
| CC(C)(C)C(=O)CC(=O)C(F)(F)C(F)(F)C(F)(F)F [(Heptafluorobutanoyl)pivaloylmethane] | 1 | – | – | – | – | – | – | – | – | – | – | – | – | – | – | – | – |
| OCC(F)(F)OC(F)(F)C(F)(F)OC(F)(F)C(F)(F)OC(F)(F)F [Fluorinated triethylene glycol monomethyl ether] | 1 | 0 | 1 | – | – | – | – | – | – | – | – | – | – | – | – | – | – |
| CC(O)C(F)(F)C(F)(F)F (stereo not drawn) [DTXSID70880134] | 1 | 0 | 1 | – | – | – | – | – | – | – | – | – | – | – | – | – | – |
| NCC(F)(F)C(F)(F)C(F)(F)C(F)(F)C(F)(F)C(F)(F)C(F)(F)C(F)(F)F [1H,1H-Perfluorononylamine] | – | 60 | 0 | 12346.8 and 12130.3 and 11151.5 | 11876.18 | 7604.95 and 6828.46 and 6766.48 | 7216.71 | 0.608 | 0.598 | 0.177 | 414.774 and 241.353 and 265.963 | 307.36 | 0.0431 | 0.043 | 0.0402 | 0.0359 | – |
| OCCC(F)(F)C(F)(F)C(F)(F)C(F)(F)C(F)(F)C(F)(F)C(F)(F)C(F)(F)F [8:2 Fluorotelomer alcohol] | – | 100 | 0 | 10349.3 (2×) and 9635.91 | 10111.53 | 7909.09 and 8525.8 and 8231.76 | 8217.44 | 0.813 | 0.814 | 0.162 | 192.869 and 61.5201 and 158.809 | 137.73 | 0.017 | 0.0170 | 0.0168 | 0.0243 | – |
| FC(F)(F)C(F)(F)C(F)(F)C(F)(F)C(F)(F)C(F)(F)CCS [DTXSID20379947] | – | 0 | 1 | – | – | – | – | – | – | – | – | – | – | – | – | – | – |
| C=C(C)C(=O)OCCC(F)(F)C(F)(F)C(F)(F)C(F)(F)C(F)(F)C(F)(F)F [6:2 Fluorotelomer methacrylate] | – | 54 | 0 | – | – | – | – | – | – | 0.0566 | – | – | – | 0.21 | 0.102 | 0.0856 | – |
